Structures are written as SMILES. In brackets after ≈: the same amount, converted by molar mass.

The assay deals with P388. The assay can be described thus: Cytotoxicity against mouse P388 cells. Type of assay: functional, cell-based.
A word on the IC50: it is the point on the concentration scale where inhibition reaches its midpoint. Consider `CC(=O)OCC(O)(C(Cc1cc(O)c(C)cc1O)OC(C)=O)C12CCC(C)(CC(/C=C(\C)CCC=C(C)C)O1)O2` (centres undefined) [SINDUROL], for which 1.2 µg/mL (≈ 2.14 µM) corresponded to half-maximal inhibition (IC50). Then `CC(=O)O[C@@H]1CO[C@@H](Oc2cc(C/C=C(\C)CC/C=C(\C)CC/C=C(\C)CCC=C(C)C)c(O)cc2C)[C@@H](O)[C@@H]1O` [NEPHTHOSIDE MANOACETATE], with 2 µg/mL (≈ 3.5 µM); and `CC(C)=CCC/C(C)=C/CC/C(C)=C/CC/C(C)=C/Cc1cc(O[C@@H]2OC[C@@H](O)[C@@H](O)[C@@H]2O)c(C)cc1O` [NEPHTHOSIDE], with 2 µg/mL (≈ 3.78 µM); and `CC(C)=CCC/C(C)=C/CC/C(C)=C/CC/C(C)=C/Cc1cc(O)c(C)cc1O`, with 2 µg/mL (≈ 5.04 µM).

The values are drawn from ChEMBL document CHEMBL1158209, “Sindurol and Nephthoside: New Tetraprenyltoluquinols from the Soft Coral Sinularia dura and Nephthea sp” (J Nat Prod, 1996).
